Measurements published in the supplement of paper PMC11061612.

Legend:
Test in all cases: combination Emax (second highest fraction inhibited in the dose matrix, 72 h); higher = more inhibition; extreme values may be limits of the assay
[1] = test system: 22RV1 (Prostate Carcinoma)
How it was run: (§1)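 Cell lines grown in DMEM/F12 or RPMI with 10% FBS were plated in 1536-well plates and held 24 hours at 37°C, 5% CO2 before 72 hours of exposure to two-drug dose matrices, with DMSO typically at 0.2%. CellTiter-Glo 2.0 luminescence gave viability, which was converted to inhibition. Vehicle wells were set to 0 and blank wells to 1. Combination Emax is the second-highest inhibition in the matrix, and Bliss excess is the observed combination effect minus the expected EA + EB − EA·EB, where EA and EB are the single-agent effects.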

5637 (Bladder Carcinoma) = test system: 5637 (Bladder Carcinoma)
How it was run: as §1

A101D (Melanoma) = test system: A101D (Melanoma)
How it was run: as §1

[2] = test system: CESS (Acute Myeloid Leukemia)
How it was run: as §1

[3] = test system: DMS-53 (Small Cell Lung Carcinoma)
How it was run: as §1

[4] = test system: EPLC-272H (Other Solid Carcinomas)
How it was run: as §1

[5] = test system: ESO26 (Esophageal Adenocarcinoma)
How it was run: as §1

EW-7 (Ewing's Sarcoma) = test system: EW-7 (Ewing's Sarcoma)
How it was run: as §1

[6] = test system: HCC1428 (Breast Carcinoma)
How it was run: as §1

[7] = test system: HT55 (Colorectal Carcinoma)
How it was run: as §1

[8] = test system: JIMT-1 (Breast Carcinoma)
How it was run: as §1

[9] = test system: Jurkat (T-Lymphoblastic Leukemia)
How it was run: as §1

KP-N-YN (Neuroblastoma) = test system: KP-N-YN (Neuroblastoma)
How it was run: as §1

[10] = test system: MDA-MB-436 (Breast Carcinoma)
How it was run: as §1

[11] = test system: MHH-ES-1 (Ewing's Sarcoma)
How it was run: as §1

[12] = test system: NCI-H1703 (Squamous Cell Lung Carcinoma)
How it was run: as §1

[13] = test system: NCI-H441 (Lung Adenocarcinoma)
How it was run: as §1

PEO1 (Ovarian Carcinoma) = test system: PEO1 (Ovarian Carcinoma)
How it was run: as §1

[14] = test system: SK-HEP-1 (Hepatocellular Carcinoma)
How it was run: as §1

[15] = test system: huH-1 (Hepatocellular Carcinoma)
How it was run: as §1

SMILES	combination Emax [1]	combination Emax (5637 (Bladder Carcinoma))	combination Emax (A101D (Melanoma))	combination Emax [2]	combination Emax [3]	combination Emax [4]	combination Emax [5]	combination Emax (EW-7 (Ewing's Sarcoma))	combination Emax [6]	combination Emax [7]	combination Emax [8]	combination Emax [9]	combination Emax (KP-N-YN (Neuroblastoma))	combination Emax [10]	combination Emax [11]	combination Emax [12]	combination Emax [13]	combination Emax (PEO1 (Ovarian Carcinoma))	combination Emax [14]	combination Emax [15]
CCN(CCO)CCCOc1ccc2c(Nc3cc(CC(=O)Nc4cccc(F)c4)[nH]n3)ncnc2c1 [AZD2811] + O=C(c1cc(Cc2n[nH]c(=O)c3ccccc23)ccc1F)N1CCN(C(=O)C2CC2)CC1 [Olaparib] (first compound max 1 µM, 7x7, partner max 10 µM)	0.337	0.622	0.261	0.513	0.181	0.204	0	0.361	0.218	0.291	0.0806	0.384	0.541	0.144	0.76	0.519	0.227	0.29	0.362	0.415
CC1(C)CCC(CN2CCN(c3ccc(C(=O)NS(=O)(=O)c4ccc(NCC5CCOCC5)c([N+](=O)[O-])c4)c(Oc4cnc5[nH]ccc5c4)c3)CC2)=C(c2ccc(Cl)cc2)C1 [Venetoclax] + C[C@@H]1COCCN1C2=NC(=NC(=C2)C3(CC3)[S@](=N)(=O)C)C4=C5C=CNC5=NC=C4 [AZD6738] (first compound max 1 µM, 7x7, partner max 10 µM)	0.599	0.69	0.91	0.929	0.809	0.873	0.508	0.959	0.397	0.58	0.722	0.921	0.999	0.36	0.707	0.883	0.454	0.48	0.28	0.597
CC1(C)CCC(CN2CCN(c3ccc(C(=O)NS(=O)(=O)c4ccc(NCC5CCOCC5)c([N+](=O)[O-])c4)c(Oc4cnc5[nH]ccc5c4)c3)CC2)=C(c2ccc(Cl)cc2)C1 [Venetoclax] + CCN(CCO)CCCOc1ccc2c(Nc3cc(CC(=O)Nc4cccc(F)c4)[nH]n3)ncnc2c1 [AZD2811] (first compound max 1 µM, 7x7, partner max 1 µM)	0.232	0.607	0.477	0.615	0.482	0.371	0.126	0.887	0.451	0.235	0.284	0.2	0.913	0.127	0.657	0.523	0.365	0.252	0.27	0.191
NC1(C(=O)N[C@@H](CCO)c2ccc(Cl)cc2)CCN(c2ncnc3[nH]ccc23)CC1 [Capivasertib] + CC(=O)c1c(C)c2cnc(Nc3ccc(N4CCNCC4)cn3)nc2n(C2CCCC2)c1=O [Palbociclib] (first compound max 10 µM, 7x7, partner max 10 µM)	0.639	0.387	0.581	0.708	0.25	0.891	0.498	0.657	0.18	0.607	0.246	0.849	0.301	0.224	0.5	0.609	0.348	0.415	0.673	0.374
COc1cccc(OCCCN)c1-c1cc(Nc2cnc(C#N)cn2)n[nH]1 [Prexasertib] + C=CCn1c(=O)c2cnc(Nc3ccc(N4CCN(C)CC4)cc3)nc2n1-c1cccc(C(C)(C)O)n1 [AZD1775] (first compound max 1 µM, partner max 1 µM)	0.619	0.924	0.832	0.966	0.473	0.914	0.649	0.962	0.688	0.67	0.869	1	0.994	0.599	0.861	0.985	0.539	0.478	0.65	0.811
NC1(C(=O)N[C@@H](CCO)c2ccc(Cl)cc2)CCN(c2ncnc3[nH]ccc23)CC1 [Capivasertib] + CCN(CCO)CCCOc1ccc2c(Nc3cc(CC(=O)Nc4cccc(F)c4)[nH]n3)ncnc2c1 [AZD2811] (first compound max 10 µM, 7x7, partner max 1 µM)	0.544	0.572	0.552	0.654	0.238	0.708	0.52	0.885	0.465	0.576	0.284	0.717	0.608	0.264	0.665	0.678	0.317	0.418	0.533	0.384
